Consider two compounds from US20190247376A1, “NICOTINIC ACETYLCHOLINE RECEPTOR AGONIST ATTENUATES ILC2-DEPENDENT AIRWAY HYPERREACTIVITY” (University of Southern California, priority 2016, published 2019).

Experiment [1] deals with lung ILC2s. Briefly: Flow cytometry of proliferation, transcription factor and signalling markers in lung ILC2s. Format: cell-based, mouse. The conditions noted are these: BALB/cByJ mice, rm-IL-33 0.5 μg, agonist 125 μg, three consecutive days. From the text:
FIGS. 5A-5F: Cholinergic signal attenuates ILC2 proliferation and GATA3 expression. (FIG. 5A) Mean fluorescence intensity of Ki67 and percentage of Ki67+ cells in isolated lung ILC2s, stimulated with IL-33 in the absence and presence of α7nAChR. (FIG. 5B) Mean fluorescence intensity of GATA3 in isolated lung ILC2s, stimulated with IL-33 in the absence and presence of α7nAChR. One representative experiment of two is shown (n=5; Student's t test *, p<0.05; **, p<0.01; ***p<0.001). […] FACS-purified ILC2s from WT mice challenged with rm-IL-33 with or without α7nAChR agonist as described in FIG. 3A were quantified by NanoString nCounter technology. Data range from −1 to +1 for the most reduced and most increased gene expression, respectively. (FIG. 5D) Expression of NF-κB p65 in isolated lung ILC2s from mice challenged with IL-33 with (dotted line) or without (thick line) α7nAChR agonist. The level of isotype-matched stain control is shown as a gray-filled histogram. (FIG. 5E) Expression of phosphorylated IKKα/β (Ser176/180) in isolated lung ILC2s stimulated with IL-33, with (dotted line) or without (thick line) α7nAChR agonist for 24 hours. The level of isotype-matched stain control is shown as a gray-filled histogram. (FIG. 5F) Mean fluorescence intensity of phosphorylated IKKα/β with or without α7nAChR agonist.
FIGS. 9A-9C: Effect of α7nAChR agonist on some marker expressions by ILC2s. A cohort of BALB/cByJ mice were intranasally challenged with rm-IL-33 (0.5 μg) with or without α7nAChR agonist (125 μg) for three consecutive days. Histogram and MFI of CD25 (FIG. 9A), CD127 (FIG. 9B) and ST2 (FIG. 9C) in isolated lung ILC2s. Data are representative of at least two independent experiments and are presented as means±SEM (n=4; Student's t test *, p<0.05).
Biotinylated anti-mouse lineage (CD3e (145-2C11), CD45R (RA3-3B2), Gr-1 (RB6-8C5), CD11c (N418), CD11b (M1/70), Ter119 (TER-119), NK1.1 (PK136), TCR-β (H57-597), TCR-γδ (GL3), and FcεRIα (MAR-1), Streptavidin-FITC, FITC anti-mouse CD3 (145-2C11), BV510 anti-mouse CD4 (RM4-5), APC-Cy7 anti-mouse CD25 (PC61), PE anti-mouse CD25 (PC61), BV421 anti-mouse CD25 (PC61), BV510 anti-mouse CD90.2 (53-2.1), APC anti-mouse CD127 (A7R34), PE-Cy7 anti-mouse CD127 (A7R34), FITC anti-mouse CD45 (30F-11), PE/Cy7 anti-mouse CD45 (30-F11), PE anti-mouse IL-5 (TRFK5), BV421 anti-mouse GATA3 (16E10A23), 7-AAD Viability staining solution, purchased from BioLegend (San Diego, Calif.). PE anti-mouse ST2 (IL-33R, RMST2-2), PerCP-eFluor710 anti-Mouse ST2 (RMST2-2), Streptavidin APC-eFluor780, Alexa Fluor647 labeled anti-IL-4 (clone 11B11), eFluor 450 anti-mouse CD45 (30F-11), eFluor450 anti-CD44 (clone IM7), eFluor-660 anti-mouse Ki-67 (SollA15), PE/Cy7 anti-mouse IL-13 (eBio13A), anti-mouse BCL-2 (10C4), were purchased from eBioscience. Alexa Fluor 488 anti-mouse p65-NF-κB (532301) was purchased from R&D Systems (dilution 1:50). Alexa Fluor 647 conjugated α-bungarotoxin (Invitrogen, San Diego, Calif.). PE anti-mouse Phospho-IKKα/β (Ser 176/180) (16A6) was purchased from Cell Signaling Technology (dilution 1:50). PE anti-rat α7nAChR (319) was purchased from Santa Cruz Biotechnology (dilution 1:50). This antibody has been used to identify this receptor previously in several studies^69. Lineage marker antibodies were used at the dilution of 1:400, unless mentioned otherwise other antibodies were used at the dilution of 1:200.
Intracellular staining was performed using BD Cytofix/Cytoperm kit (BD Bioscience, San Jose, Calif.) according to the manufacturer's instructions. For analysis of GATA3 and Ki-67 expression, freshly isolated cells were fixed and permeabilized using Fixation/Permeabilization buffer kit (eBioscience) according to the manufacturer's instructions and as previously described^70.
On the technique in general: Flow cytometry measures light scatter and fluorescence of single cells or particles in a stream.

The conditions of experiment [2]: cited from earlier work.

For “3-[(3E)-3-[(2,4-dimethoxyphenyl)methylidene]-5,6-dihydro-4H-pyridin-2-yl]pyridine [GTS-21]”, in experiment [1], the “expression of CD25, CD127, and ST2 by ILC2s” value was “did not alter”.
As to `CN1CCCC1c1cccnc1` (stereo not shown) [nicotine], in experiment [2] (HDM-induced asthma model), the AHR result is reported as “not suppressed” and the Th2 cytokines result was “suppression”. Moreover, in experiment [2] (asthma model), the “HDM-induced allergic lung inflammation” value is listed as “attenuated”.
